The results in this text go back to patent US20180327355A1, “ISOINDOLINE DERIVATIVES” (priority 2015, published 2018).

In one assay the test system is HIV. The assay is described as follows: MT4 assay (anti-HIV activity). Conditions: 96 h. It counts as cell-based. The protocol: Antiviral HIV activity and cytotoxicity values for compounds of the invention from Table 1 were measured in parallel in the HTLV-1 transformed cell line MT-4 based on the method previously described (Hazen et al., 2007, In vitro antiviral activity of the novel, tyrosyl-based human immunodeficiency virus (HIV) type 1 protease inhibitor brecanavir (GW640385) in combination with other antiretrovirals and against a panel of protease inhibitor-resistant HIV (Hazen et al., “In vitro antiviral activity of the novel, tyrosyl-based human immunodeficiency virus (HIV) type 1 protease inhibitor brecanavir (GW640385) in combination with other antiretrovirals and against a panel of protease inhibitor-resistant HIV”, Antimicrob. Agents Chemother. 2007, 51: 3147-3154; and Pauwels et al., “Sensitive and rapid assay on MT-4 cells for the detection of antiviral compounds against the AIDS virus”, J. of Virological Methods 1987, 16: 171-185).
Luciferase activity was measured 96 hours later by adding a cell titer glo (Promega, Madison, Wis.). Percent inhibition of cell protection data was plotted relative to no compound control. Under the same condition, cytotoxicity of the compounds was determined using cell titer Glo™ (Promega, Madison, Wis). ICsos were determined from a 10 point dose response curve using 3-4-fold serial dilution for each compound, which spans a concentration range >1000 fold.
These values are plotted against the molar compound concentrations using the standard four parameter logistic equation:
y=((Vmax*x̂n)/(K̂n+x̂n))+Y2
Y2=minimum y n=slope factor
Vmax=maximum y x=compound concentration [M]
For the compound `C/C(=C(/C)c1c(C)c2c(c(C)c1[C@H](OC(C)(C)C)C(=O)O)CN(C(=O)c1cccc(F)c1)C2)c1ccccc1` [Example 23, (S,E)-2-(tert-butoxy)-2-(2-(3-fluorobenzoyl)-4,7-dimethyl-6-(3-phenylbut-2-en-2-yl)isoindolin-5-yl)acetic acid], the IC50 amounted to 0.044 µM.

The assay is the same for the next values; noted with them: MT4 assay, HTLV-1 transformed cell line MT-4, readout 96 hours, cell titer glo; read-out: IC50.
Consider `Cc1c(C#Cc2ccccc2)c([C@H](OC(C)(C)C)C(=O)O)c(C)c2c1CN(C(=O)c1cccc(F)c1)C2` [Example 1, (S)-2-(tert-butoxy)-2-(2-(3-fluorobenzoyl)-4,7-dimethyl-6-(phenylethynyl)isoindolin-5-yl)acetic acid], for which the IC50 was determined as 1.03 µM.

For the compound `C#Cc1c(C)c2c(c(C)c1[C@H](OC(C)(C)C)C(=O)O)CN(C(=O)c1cccc(F)c1)C2` [Example 2, (S)-2-(tert-butoxy)-2-(6-ethynyl-2-(3-fluorobenzoyl)-4,7-dimethylisoindolin-5-yl)acetic acid], the 50% inhibitory concentration (IC50) was found to be 3.68 µM.

Take `Cc1c2c(c(C)c([C@H](OC(C)(C)C)C(=O)O)c1Cc1ccccc1)CN(C(=O)c1cccc(F)c1)C2` [Example 3, (S)-2-(6-benzyl-2-(3-fluorobenzoyl)-4,7-dimethylisoindolin-5-yl)-2-(tert-butoxy)acetic acid]: the IC50 worked out at 0.651 µM.

As for `Cc1c2c(c(C)c([C@H](OC(C)(C)C)C(=O)O)c1CC(=O)N1CCCCC1)CN(C(=O)c1cccc(F)c1)C2` [Example 4, (S)-2-(tert-butoxy)-2-(2-(3-fluorobenzoyl)-4,7-dimethyl-6-(2-oxo-2-(piperidin-1-yl)ethyl)isoindolin-5-yl)acetic acid], the IC50 was found to be 10.2 µM.

Regarding `Cc1c2c(c(C)c([C@H](OC(C)(C)C)C(=O)O)c1CC(=O)NC1CCCCC1)CN(C(=O)c1cccc(F)c1)C2` [Example 5, (S)-2-(tert-butoxy)-2-(6-(2-(cyclohexylamino)-2-oxoethyl)-2-(3-fluorobenzoyl)-4,7-dimethylisoindolin-5-yl)acetic acid], the IC50 worked out at 50 µM.

As for `Cc1c2c(c(C)c([C@H](OC(C)(C)C)C(=O)O)c1CC(=O)Nc1ccccc1)CN(C(=O)c1cccc(F)c1)C2` [Example 6, (S)-2-(tert-butoxy)-2-(2-(3-fluorobenzoyl)-4,7-dimethyl-6-(2-oxo-2-(phenylamino)ethyl)isoindolin-5-yl)acetic acid], the IC50 worked out at 9.63 µM.

Take `Cc1c2c(c(C)c([C@H](OC(C)(C)C)C(=O)O)c1CC(=O)NCC(C)(C)C)CN(C(=O)c1cccc(F)c1)C2` [Example 7, (S)-2-(tert-butoxy)-2-(2-(3-fluorobenzoyl)-4,7-dimethyl-6-(2-(neopentylamino)-2-oxoethyl)isoindolin-5-yl)acetic acid]: the IC50 came out at 38 µM.

Consider `Cc1ccc(C(=O)Nc2c(C)c3c(c(C)c2[C@H](OC(C)(C)C)C(=O)O)CN(C(=O)c2cccc(F)c2)C3)cc1` [Example 8, (S)-2-(tert-butoxy)-2-(2-(3-fluorobenzoyl)-4,7-dimethyl-6-(4-methylbenzamido)isoindolin-5-yl)acetic acid], for which the IC50 is 50 µM.

For the compound `Cc1c2c(c(C)c([C@H](OC(C)(C)C)C(=O)O)c1NC(=O)CC1CCCCC1)CN(C(=O)c1cccc(F)c1)C2` [Example 9, (S)-2-(tert-butoxy)-2-(6-(2-cyclohexylacetamido)-2-(3-fluorobenzoyl)-4,7-dimethylisoindolin-5-yl)acetic acid], the IC50 turned out to be 50 µM.

Consider `Cc1c2c(c(C)c([C@H](OC(C)(C)C)C(=O)O)c1NC(=O)c1ccccc1)CN(C(=O)c1cccc(F)c1)C2` [Example 10, (S)-2-(6-benzamido-2-(3-fluorobenzoyl)-4,7-dimethylisoindolin-5-yl)-2-(tert-butoxy)acetic acid], for which the IC50 was 4.1 µM.

For the compound `Cc1c2c(c(C)c([C@H](OC(C)(C)C)C(=O)O)c1NC(=O)N1CCCCC1)CN(C(=O)c1cccc(F)c1)C2` [Example 11, (S)-2-(tert-butoxy)-2-(2-(3-fluorobenzoyl)-4,7-dimethyl-6-(piperidine-1-carboxamido)isoindolin-5-yl)acetic acid], the IC50 came to 3.12 µM.

Consider `Cc1ccc(C(=O)N(C)c2c(C)c3c(c(C)c2[C@H](OC(C)(C)C)C(=O)O)CN(C(=O)c2cccc(F)c2)C3)cc1` [Example 12, (S)-2-(tert-butoxy)-2-(6-(N,4-dimethylbenzamido)-2-(3-fluorobenzoyl)-4,7-dimethylisoindolin-5-yl)acetic acid], for which the IC50 came out at 33.9 µM.

With `Cc1c2c(c(C)c(N(C)C(=O)CC3CCCCC3)c1[C@H](OC(C)(C)C)C(=O)O)CN(C(=O)c1cccc(F)c1)C2` [Example 13, (S)-2-(tert-butoxy)-2-(6-(2-cyclohexyl-N-methylacetamido)-2-(3-fluorobenzoyl)-4,7-dimethylisoindolin-5-yl)acetic acid], the IC50 worked out at 44.6 µM.

Consider `Cc1c(/C=C/C2CCCCC2)c([C@H](OC(C)(C)C)C(=O)O)c(C)c2c1CN(C(=O)c1cccc(F)c1)C2` [Example 14, (S,E)-2-(tert-butoxy)-2-(6-(2-cyclohexylvinyl)-2-(3-fluorobenzoyl)-4,7-dimethylisoindolin-5-yl)acetic acid], for which the IC50 was 0.086 µM.

In the case of `Cc1c(/C=C/C2CCOCC2)c([C@H](OC(C)(C)C)C(=O)O)c(C)c2c1CN(C(=O)c1cccc(F)c1)C2` [Example 15, (S,E)-2-(tert-butoxy)-2-(2-(3-fluorobenzoyl)-4,7-dimethyl-6-(2-(tetrahydro-2H-pran-4-yl)vinyl)isoindolin-5-yl)acetic acid], the IC50 came out at 1.31 µM.

Regarding `Cc1c(/C=C/CC(C)(C)C)c([C@H](OC(C)(C)C)C(=O)O)c(C)c2c1CN(C(=O)c1cccc(F)c1)C2` [Example 16, (S,E)-2-(tert-butoxy)-2-(6-(4,4-dimethylpent-1-en-1-yl)-2-(3-fluorobenzoyl)-4,7-dimethylisoindolin-5-yl)acetic acid], the IC50 turned out to be 0.12 µM.

With `Cc1c(/C=C/c2ccccc2)c([C@H](OC(C)(C)C)C(=O)O)c(C)c2c1CN(C(=O)c1cccc(F)c1)C2` [Example 17, (S,E)-2-(tert-butoxy)-2-(2-(3-fluorobenzoyl)-4,7-dimethyl-6-styrylisoindolin-5-yl)acetic acid], the IC50 was 0.124 µM.

For the compound `Cc1c2c(c(C)c([C@H](OC(C)(C)C)C(=O)O)c1CCc1ccccc1)CN(C(=O)c1cccc(F)c1)C2` [Example 18, (S)-2-(tert-butoxy)-2-(2-(3-fluorobenzoyl)-4,7-dimethyl-6-phenethylisoindolin-5-yl)acetic acid], the IC50 is 1.09 µM.

In the case of `Cc1ccc(/C=C/c2c(C)c3c(c(C)c2[C@H](OC(C)(C)C)C(=O)O)CN(C(=O)c2cccc(F)c2)C3)cc1` [Example 19, (S,E)-2-(tert-butoxy)-2-(2-(3-fluorobenzoyl)-4,7-dimethyl-6-(4-methylstyryl)isoindolin-5-yl)acetic acid], the IC50 stood at 50 µM.

Consider `Cc1ccc(CCc2c(C)c3c(c(C)c2[C@H](OC(C)(C)C)C(=O)O)CN(C(=O)c2cccc(F)c2)C3)cc1` [Example 20, (S)-2-(tert-butoxy)-2-(2-(3-fluorobenzoyl)-4,7-dimethyl-6-(4-methylphenethyl)isoindolin-5-yl)acetic acid], for which the 50% inhibitory concentration (IC50) stood at 50 µM.

For the compound `C/C(=C\c1c(C)c2c(c(C)c1[C@H](OC(C)(C)C)C(=O)O)CN(C(=O)c1cccc(F)c1)C2)c1ccccc1` [Example 21, (S,E)-2-(tert-butoxy)-2-(2-(3-fluorobenzoyl)-4,7-dimethyl-6-(2-phenylprop-1-en-1-yl)isoindolin-5-yl)acetic acid], the IC50 was 0.103 µM.

Consider `C/C(=C\c1ccccc1)c1c(C)c2c(c(C)c1[C@H](OC(C)(C)C)C(=O)O)CN(C(=O)c1cccc(F)c1)C2` [Example 22, (S,E)-2-(tert-butoxy)-2-(2-(3-fluorobenzoyl)-4,7-dimethyl-6-(1-phenylprop-1-en-2-yl)isoindolin-5-yl)acetic acid], for which the IC50 came out at 0.039 µM.

On to `C/C(=C\c1cc(F)c2c(c1C)CCCO2)c1c(C)c2c(c(C)c1[C@H](OC(C)(C)C)C(=O)O)CN(C(=O)c1cccc(F)c1)C2` [Example 24, (S,E)-2-(tert-butoxy)-2-(6-(1-(8-fluoro-5-methylchroman-6-yl)prop-1-en-2-yl)-2-(3-fluorobenzoyl)-4,7-dimethylisoindolin-5-yl)acetic acid], for which the IC50 amounted to 50 µM.

In the case of `Cc1c(/C=C/c2ccc3c(c2)CCCO3)c([C@H](OC(C)(C)C)C(=O)O)c(C)c2c1CN(C(=O)c1cccc(F)c1)C2` [Example 25, (S,E)-2-(tert-butoxy)-2-(6-(2-(chroman-6-yl)vinyl)-2-(3-fluorobenzoyl)-4,7-dimethylisoindolin-5-yl)acetic acid], the IC50 was 33.9 µM.

Regarding `Cc1c(/C=C/c2cc(F)c3c(c2C)CCCO3)c([C@H](OC(C)(C)C)C(=O)O)c(C)c2c1CN(C(=O)c1cccc(F)c1)C2` [Example 26], the IC50 was determined as 50 µM.

Turning to `Cc1c(/C=C\c2ccccc2)c([C@H](OC(C)(C)C)C(=O)O)c(C)c2c1CN(C(=O)c1cccc(F)c1)C2` [Example 27, (S,Z)-2-(tert-butoxy)-2-(2-(3-fluorobenzoyl)-4,7-dimethyl-6-styrylisoindolin-5-yl)acetic acid], the IC50 is 0.868 µM.

One may read the IC50 as the concentration that inhibits the measured activity by half.
